Assay results from article PMC4014597 (PLoS ONE, 2014).

How the values were obtained:
human DNMT1 (hDNMT1) = biological target: T1, human DNMT1 (hDNMT1) (Homo sapiens, UniProt P26358); assay: DNMT1 assay (radioactive Flashplate methylation assay); type: biochemical; conditions: 100 µM compound; for inhibition at 100 µM: read-out: % inhibition ± SD hDNMT1
T1 construct: His; made in house
Method: His-DNMT1 (182 kDa, human) was cloned, expressed and purified as described by Lee et al.. The DNMT1 assay was performed according to Gros et al.. Briefly, the reaction was started by addition of 90 nM of DNMT1 on a mix containing the tested compound (up to 1% DMSO), 1 µM of a AdoMet/[methyl-^3H]-AdoMet mix in a ratio of 3-to-1 (isotopic dilution 1*:3) and 0.3 µM of biotinylated DNA duplex in 10 µL final volume. The reaction was incubated at 37°C for 2 h in reaction buffer (20 mM HEPES pH 7.2, 1 mM EDTA, 50 mM KCl, 25 µg/mL BSA). 8 µL are then transferred into a streptavidin-coated Flashplate PLUS (PerkinElmer) containing 190 µL of 20 µM AdoHcy (Sigma-Aldrich) in 50 mM Tris-HCl pH 7.4. The Flashplate was agitated at room temperature for 1 h, washed three times with 200 µL of 0.05% Tween-20 in 50 mM Tris-HCl pH 7.4 and read in 200 µL of 50 mM Tris-HCl pH 7.4 on TopCount NXT (PerkinElmer). Percentages of inhibition were calculated with the same formula as in DNMT3A assay.

[1] = biological target: T2, C-terminal catalytic domain of human DNMT3A (hDNMT3A) (Homo sapiens, UniProt Q9Y6K1); assay: DNMT3A assay (restriction-based fluorescence assay); type: biochemical; conditions: for inhibition at 100 µM: 100 µM compound; for inhibition at 100 µM / inhibition at 10 µM / inhibition at 32 µM / inhibition at 3.2 µM: read-out: % inhibition ± SD hDNMT3A
T2 construct: catalytic domain of human DNMT3A (residues 623–908), produced as described; made in house
From the text: DNMT3A enzyme inhibition was adapted from the restriction-based fluorescence assay protocol described in Ceccaldi et al.. Briefly, a 5'-labelled biotin oligonucleotide is hybridized to its complementary strand labelled with 6-carboxyfluorescein at the 3′-end into a 384 well microplate (black Optiplates; Perkin Elmer) pre-coated with avidin. The duplex contains a unique CpG site overlapping with a restriction site of a methylation sensitive restriction enzyme. The C-terminal catalytic domain of human DNMT3A (residues 623–908), produced as described, was added in each well (200 ng/well) and mixed with the chemical compounds at desired concentrations and freshly prepared AdoMet (20 µM final concentration) to start the reaction in a total volume of 50 µL. After 1 hour incubation at 37°C each well were washed three times with PBS, 0.05% Tween-20, 500 mM NaCl and three more times with PBST. Specific fluorescent signals were detected with the methylation-sensitive restriction enzyme HpyCH4IV (NEB) as described and measured on a Perkin Elmer Envision detector. The percentage of inhibition is reported. The formula used to calculate the percentage of inhibition is [(X-Y)/X]×100, where X is the signal determined in the absence of the inhibitor and Y is the signal obtained in the presence of the inhibitor. […] The non-linear regression fittings with sigmoidal dose-response (variable slope) were performed with GraphPad Prism 4.03 (GraphPad Software).

[2] = biological target: T3, human G9a-like protein (GLP) (Homo sapiens, UniProt Q9H9B1); assay: GLP assay (histone methylation inhibition); type: biochemical; conditions: 8 μM inhibitor; read-out: Percent of GLP inhibition
T3 construct: catalytic SET domain (residues 734-1235; pXC758) were purified as described; made in house
T3 sequence (Q9H9B1 765-1266): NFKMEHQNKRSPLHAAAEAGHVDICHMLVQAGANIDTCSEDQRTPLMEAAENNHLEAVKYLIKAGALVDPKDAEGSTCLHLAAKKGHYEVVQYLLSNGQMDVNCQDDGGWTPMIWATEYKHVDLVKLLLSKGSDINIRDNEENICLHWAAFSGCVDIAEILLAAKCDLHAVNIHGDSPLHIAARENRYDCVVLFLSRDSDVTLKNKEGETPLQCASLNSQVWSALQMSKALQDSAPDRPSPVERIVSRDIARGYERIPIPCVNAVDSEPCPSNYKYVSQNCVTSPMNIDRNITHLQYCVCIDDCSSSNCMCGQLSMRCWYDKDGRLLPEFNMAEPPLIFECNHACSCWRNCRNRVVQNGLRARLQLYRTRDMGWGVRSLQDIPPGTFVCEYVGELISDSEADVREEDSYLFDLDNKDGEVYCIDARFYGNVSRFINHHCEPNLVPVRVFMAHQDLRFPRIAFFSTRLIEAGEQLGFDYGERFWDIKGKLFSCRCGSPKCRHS
Method: GLP Assay. Recombinant human G9a-like protein (GLP) C-terminal fragment containing both the ankyrin repeats and catalytic SET domain (residues 734-1235; pXC758) were purified as described. For histone methylation inhibition, the assay was performed in 20 μL reaction containing 4.6 mM [methyl-^3H]-AdoMet, 50 μg/mL histone from calf thymus (SIGMA), 10 μg/mL (0.17 μM) GLP, 100 mM KCl, 5 mM (DTT) and 50 mM Tris-HCl pH 8.5. GLP was pre-incubated with AdoMet and 8 µM inhibitors for 5 min at 30 °C before the addition of the histone substrate. After incubation (5 min), the reaction was terminated by the addition of 20% trichloroacetic acid (TCA, Fisher Scientific). The reaction mixture was spotted on GF/A paper circles (Whatman), washed three times with 3 mL of 10% TCA and once with 3 mL of ethanol. The dried circles were subjected to liquid-scintillation counting with Cytoscint scintillant.

[3] = test system: CMV-luc construct in KG-1 cells; assay: CMV-luc assay (luciferase re-expression from methylated CMV promoter); type: cell-based; conditions: 24 h
U-937 cells = test system: U-937 cells; design: method as in PMID 24387159; conditions: 48 h; read-out: IC50 (mean ± SD) cell viability U-937; cited from earlier work
RAJI cells = test system: RAJI cells; design: method as in PMID 24387159; conditions: 48 h; read-out: IC50 (mean ± SD) cell viability RAJI; cited from earlier work
Human G9a = biological target: T4, Human G9a (Homo sapiens, UniProt Q96KQ7); assay: G9a assay (3H-AdoMet filter-binding); type: biochemical; conditions: 10-dose IC50 mode, 2-fold serial dilution starting at 400 µM
T4 sequence (Q96KQ7 786-1210 limits assumed): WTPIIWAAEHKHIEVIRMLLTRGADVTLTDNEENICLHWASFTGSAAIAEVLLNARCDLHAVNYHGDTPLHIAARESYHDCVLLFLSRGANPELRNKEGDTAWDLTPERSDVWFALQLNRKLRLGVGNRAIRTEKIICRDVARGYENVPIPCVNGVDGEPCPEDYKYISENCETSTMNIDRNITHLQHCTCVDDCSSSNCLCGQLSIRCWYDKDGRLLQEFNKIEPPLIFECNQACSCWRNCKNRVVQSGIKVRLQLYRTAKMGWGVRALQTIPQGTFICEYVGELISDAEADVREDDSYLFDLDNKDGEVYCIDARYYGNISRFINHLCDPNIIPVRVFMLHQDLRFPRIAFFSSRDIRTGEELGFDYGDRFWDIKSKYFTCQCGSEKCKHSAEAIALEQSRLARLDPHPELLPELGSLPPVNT
Method: The reaction buffer was 50 mM Tris-HCl, pH 8.5, 50 mM NaCl, 5 mM MgCl2, 1 mM dithiothreitol (DTT), 1 mM PMSF, and 1% DMSO. Standard substrate concentrations were 5 µM biotinylated H3 (1–21) peptide (AnaSpec) substrate and 0.1 mM AdoMet. For control compound IC50 determinations, the test compounds were diluted in DMSO and then added to the enzyme/substrate mixture in nanoliter amounts by using an acoustic technology (Echo 500; Lab-cyte). The reaction was initiated by the addition of ^3H-AdoMet, and incubated at 30°C for 1 h. The reaction was detected by a filter-binding method. Data analysis was performed using Graph Pad Prism software for curve fits, and GraFit (Erithacus) for global fit of kinetic studies.

T1 sequence (P26358 whole entry): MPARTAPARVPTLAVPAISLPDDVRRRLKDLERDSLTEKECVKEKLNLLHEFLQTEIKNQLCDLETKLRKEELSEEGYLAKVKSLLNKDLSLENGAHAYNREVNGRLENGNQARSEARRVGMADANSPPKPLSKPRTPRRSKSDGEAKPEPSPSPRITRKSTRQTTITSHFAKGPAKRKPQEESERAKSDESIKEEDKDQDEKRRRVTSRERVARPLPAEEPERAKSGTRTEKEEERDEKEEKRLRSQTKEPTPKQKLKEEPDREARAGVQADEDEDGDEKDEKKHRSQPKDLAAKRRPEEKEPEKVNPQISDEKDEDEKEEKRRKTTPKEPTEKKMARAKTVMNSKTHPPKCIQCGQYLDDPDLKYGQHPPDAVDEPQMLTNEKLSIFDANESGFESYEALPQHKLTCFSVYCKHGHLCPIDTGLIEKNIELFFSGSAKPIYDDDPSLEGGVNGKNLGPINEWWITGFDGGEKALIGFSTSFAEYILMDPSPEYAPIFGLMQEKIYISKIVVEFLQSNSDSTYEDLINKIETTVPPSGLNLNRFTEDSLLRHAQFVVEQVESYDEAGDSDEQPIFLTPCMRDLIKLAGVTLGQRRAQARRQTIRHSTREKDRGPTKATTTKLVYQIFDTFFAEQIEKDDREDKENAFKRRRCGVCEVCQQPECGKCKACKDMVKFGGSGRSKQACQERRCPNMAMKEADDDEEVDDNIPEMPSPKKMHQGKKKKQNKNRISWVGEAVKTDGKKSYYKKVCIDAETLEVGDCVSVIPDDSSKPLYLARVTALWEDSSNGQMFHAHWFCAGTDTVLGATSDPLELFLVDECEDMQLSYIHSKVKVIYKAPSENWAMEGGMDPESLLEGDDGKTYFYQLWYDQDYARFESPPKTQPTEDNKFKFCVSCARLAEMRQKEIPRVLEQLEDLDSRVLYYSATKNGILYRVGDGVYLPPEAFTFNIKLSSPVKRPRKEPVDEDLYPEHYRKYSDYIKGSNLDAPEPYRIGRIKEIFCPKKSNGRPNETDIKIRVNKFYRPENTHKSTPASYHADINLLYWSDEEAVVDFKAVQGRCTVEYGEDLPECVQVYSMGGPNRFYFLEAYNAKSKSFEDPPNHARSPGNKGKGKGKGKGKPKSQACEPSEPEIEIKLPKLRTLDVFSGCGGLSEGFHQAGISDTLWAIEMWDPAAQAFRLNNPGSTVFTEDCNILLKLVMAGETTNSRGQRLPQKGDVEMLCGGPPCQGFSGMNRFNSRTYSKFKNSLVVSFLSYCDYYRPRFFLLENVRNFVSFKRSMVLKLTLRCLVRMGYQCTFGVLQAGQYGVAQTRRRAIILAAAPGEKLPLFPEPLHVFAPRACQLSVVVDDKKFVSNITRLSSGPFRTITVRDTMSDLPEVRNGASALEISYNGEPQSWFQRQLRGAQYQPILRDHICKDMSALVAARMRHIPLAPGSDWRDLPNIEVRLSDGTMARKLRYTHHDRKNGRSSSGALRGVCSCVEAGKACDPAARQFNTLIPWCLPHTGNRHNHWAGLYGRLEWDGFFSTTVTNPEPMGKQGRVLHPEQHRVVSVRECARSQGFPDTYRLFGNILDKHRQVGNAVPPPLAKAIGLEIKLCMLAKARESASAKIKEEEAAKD
T2 sequence (Q9Y6K1 627-912): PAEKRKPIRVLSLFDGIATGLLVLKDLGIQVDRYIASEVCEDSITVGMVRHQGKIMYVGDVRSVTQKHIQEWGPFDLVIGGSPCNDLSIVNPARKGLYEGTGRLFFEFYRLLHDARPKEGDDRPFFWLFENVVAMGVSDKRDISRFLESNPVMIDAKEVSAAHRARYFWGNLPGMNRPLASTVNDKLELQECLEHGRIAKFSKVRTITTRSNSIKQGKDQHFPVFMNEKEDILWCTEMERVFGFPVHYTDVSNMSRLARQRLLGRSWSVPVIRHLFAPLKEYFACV

In the case of `COc1cc2nc(N3CCCN(C)CC3)nc(NC3CCN(Cc4ccccc4)CC3)c2cc1OC` [Compound 1, BIX-01294, reference compound], the “% inhibition ± SD hDNMT1” value (human DNMT1 (hDNMT1); 100 µM) is reported as 35±8%, the inhibition at 100 µM (human DNMT1 (hDNMT1)) is reported as 30% and the inhibition at 100 µM [1] is reported as 12 ± 3%. The inhibition at 8 µM [2] was 91.7%.
Compound `CN1CCN(c2nc(NC3CCN(Cc4ccccc4)CC3)c3ccccc3n2)CC1` [Compound 5] has an inhibition at 100 µM (human DNMT1 (hDNMT1)) of 0%, an inhibition at 10 µM ([1]; 10 µM compound) of 0% and an inhibition at 32 µM ([1]; 32 µM compound) of 14 ± 3%. For the same compound, the inhibition at 100 µM [1] was 30 ± 8%.
In the case of `c1ccc(CN2CCC(Nc3nc(N4CCCCC4)nc4ccccc34)CC2)cc1` [Compound 6], the inhibition at 100 µM (human DNMT1 (hDNMT1)) is reported as 0%, the inhibition at 3.2 µM ([1]; 3.2 µM compound) is reported as 11 ± 5% and the inhibition at 10 µM ([1]; 10 µM compound) is reported as 14 ± 6%. The inhibition at 32 µM ([1]; 32 µM compound) was 33 ± 6% and the inhibition at 100 µM [1] was 57 ± 8%.
Work on `c1ccc(CN2CCC(Nc3nc(N4CCCCCC4)nc4ccccc34)CC2)cc1` [Compound 7] yielded an inhibition at 100 µM (human DNMT1 (hDNMT1)) of 0%, a melting point of 119 to 122 °C and an inhibition at 3.2 µM ([1]; 3.2 µM compound) of 7 ± 2%. The inhibition at 10 µM ([1]; 10 µM compound) was 16 ± 2%, the inhibition at 32 µM ([1]; 32 µM compound) was 32 ± 3% and the inhibition at 100 µM [1] was 57 ± 3%.
`CC1CCN(c2nc(NC3CCN(Cc4ccccc4)CC3)c3ccccc3n2)CC1` [Compound 8] showed an inhibition at 100 µM (human DNMT1 (hDNMT1)) of 0%, a melting point of 106 to 108 °C and an inhibition at 3.2 µM ([1]; 3.2 µM compound) of 7 ± 1%. It also gave an inhibition at 10 µM ([1]; 10 µM compound) of 14 ± 2%, an inhibition at 32 µM ([1]; 32 µM compound) of 35 ± 5% and an inhibition at 100 µM [1] of 53 ± 3%.
`CC1CCCCN1c1nc(NC2CCN(Cc3ccccc3)CC2)c2ccccc2n1` (centres unmarked) [Compound 9] showed an inhibition at 100 µM (human DNMT1 (hDNMT1)) of 0%, a melting point of 128 to 129 °C and an inhibition at 3.2 µM ([1]; 3.2 µM compound) of 1 ± 1%. It also gave an inhibition at 10 µM ([1]; 10 µM compound) of 5 ± 2%, an inhibition at 32 µM ([1]; 32 µM compound) of 14 ± 7% and an inhibition at 100 µM [1] of 47 ± 5%.
In the case of `c1ccc(CN2CCC(Nc3nc(N4CCSCC4)nc4ccccc34)CC2)cc1` [Compound 11], the inhibition at 100 µM (human DNMT1 (hDNMT1)) is reported as 0%, the melting point is reported as 155 to 157 °C and the inhibition at 10 µM ([1]; 10 µM compound) is reported as 8 ± 2%. For the same compound, the inhibition at 100 µM [1] was 42 ± 3%.
In the case of `c1ccc(CN2CCC(Nc3nc(N4CCOCC4)nc4ccccc34)CC2)cc1` [Compound 12, N-(1-benzylpiperidin-4-yl)-2-morpholinoquinazolin-4-amine], the inhibition at 100 µM (human DNMT1 (hDNMT1)) is reported as 0% and the inhibition at 100 µM [1] is reported as 7%.
In the case of `O=C(c1ccccc1)N1CCN(c2nc(NC3CCN(Cc4ccccc4)CC3)c3ccccc3n2)CC1` [Compound 15], the inhibition at 100 µM (human DNMT1 (hDNMT1)) is reported as 0%, the melting point is reported as 213 to 215 °C and the inhibition at 100 µM [1] is reported as 23 ± 2%.
`OCCNc1nc(NC2CCN(Cc3ccccc3)CC2)c2ccccc2n1` [Compound 16] showed an inhibition at 100 µM (human DNMT1 (hDNMT1)) of 0%, a melting point of 116 to 118 °C and an inhibition at 10 µM ([1]; 10 µM compound) of 8 ± 3%. The inhibition at 100 µM [1] was 37 ± 4%.
`CN(C)CCNc1nc(NC2CCN(Cc3ccccc3)CC2)c2ccccc2n1` [Compound 17] showed an inhibition at 100 µM (human DNMT1 (hDNMT1)) of 0%, a melting point of 120 to 122 °C and an inhibition at 100 µM [1] of 10%.
In the case of `CN(C)CCCNc1nc(NC2CCN(Cc3ccccc3)CC2)c2ccccc2n1` [Compound 18], the inhibition at 100 µM (human DNMT1 (hDNMT1)) is reported as 0% and the inhibition at 100 µM [1] is reported as 8 ± 1%.
With `Cc1cc(Nc2ccc(NC(=O)c3ccc(Nc4ccnc5ccccc45)cc3)cc2)nc(N)n1` [SGI-1027, reference compound] the “% inhibition ± SD hDNMT1” value (human DNMT1 (hDNMT1)) was 100±0.1%, the “fold-induction of the luciferase signal (CMV-luc)” value (“fold-induction” for short) ([3]; 5 µM) was 17 fold and the “fold-induction” value ([3]; 10 µM) was 10 fold. The “fold-induction” value ([3]; 25 µM) was “no induction”, the IC50 (U-937 cells) was 1.7 ± 1.1 µM and the “% inhibition ± SD hDNMT3A” value ([1]; 3.2 µM compound) was 80±4%. The “% inhibition ± SD hDNMT3A” value ([1]; 10 µM compound) was 72±6%, the “% inhibition ± SD hDNMT3A” value ([1]; 32 µM compound) was 75±7% and the IC50 (RAJI cells) was 9.1 ± 0.8 µM.
For `CN1C(=O)[C@@]23C[C@]4([C@]56C[C@@]78SS[C@@](CO)(C(=O)N7[C@H]5Nc5ccccc56)N(C)C8=O)c5ccccc5N[C@@H]4N2C(=O)[C@]1(CO)SS3` [chaetocin, reference compound], the IC50 (Human G9a) was 8 µM.
